From PubChem BioAssay (NCI) come the findings set out here.

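Following 48 hours of exposure in 96-well plates, responses at five concentrations were used to interpolate endpoints linearly. TGI marks complete inhibition of growth.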

Test systems include DU-145 prostate; HCC-2998 colon; HOP-62 NSCLC; HS 578T breast; M14 melanoma; MALME-3M melanoma; MCF7 breast; MDA-MB-435; OVCAR-5 ovarian; RXF 393 renal; SK-MEL-2 melanoma; SK-MEL-5 melanoma; SN12C renal; SNB-75 CNS; A549 NSCLC; NCI-H522 lung; SF-268 CNS; T-47D breast; DLD-1 colon; M19-MEL melanoma.
Holding throughout (assay): NCI tumour cell line growth inhibition, 48 h

For the molecule `O=C(N/N=C\C(F)(F)F)c1ccncc1`, the TGI in the test with DU-145 prostate, in the test with HCC-2998 colon, in the test on HOP-62 NSCLC, in the test on HS 578T breast, in the test with M14 melanoma and with MALME-3M melanoma was above 100 µM throughout. The TGI in the test on MCF7 breast, in the test on MDA-MB-435, in the test with OVCAR-5 ovarian, in the test with RXF 393 renal, in the test with SK-MEL-2 melanoma and with SK-MEL-5 melanoma was above 100 µM each time. The TGI in the test on SN12C renal and in the test with SNB-75 CNS was above 100 µM each time.

Take `CN(C)CCN(C(=Nc1ccccc1)N1CCCC1)c1ccccc1`: the TGI in the test on A549 NSCLC, in the test on DU-145 prostate, in the test on HOP-62 NSCLC, in the test on HS 578T breast, in the test with M14 melanoma and in the test on MALME-3M melanoma was above 100 µM each time. The TGI with MCF7 breast, with MDA-MB-435, in the test with NCI-H522 lung, in the test on OVCAR-5 ovarian, in the test on SF-268 CNS and in the test with SK-MEL-2 melanoma was above 100 µM each time. For the same molecule, the TGI in the test with SK-MEL-5 melanoma, in the test with SN12C renal, in the test on SNB-75 CNS and in the test on T-47D breast was above 100 µM each time.

As for `COC(=O)C1=C(C)N2CCOC2CC1c1ccccc1` (stereo not given), the TGI with A549 NSCLC, in the test with DLD-1 colon, in the test with HCC-2998 colon, with HOP-62 NSCLC, with M14 melanoma and in the test with M19-MEL melanoma was above 100 µM in each case. In addition, the TGI in the test on RXF 393 renal, with SF-268 CNS, in the test on SK-MEL-2 melanoma, with SK-MEL-5 melanoma and in the test on SNB-75 CNS was above 100 µM throughout.

As for `COc1cc(C(=O)Nc2cc(C(N)=O)cc(OC)c2OC)cc(NC(=O)/C=C/c2ccccc2)c1OC`, the TGI in the test with A549 NSCLC was above 100 µM; in the test with DU-145 prostate, above 100 µM; with MALME-3M melanoma, 64 µM; with MCF7 breast, above 100 µM; with MDA-MB-435, above 100 µM; in the test on NCI-H522 lung it was above 100 µM. Moreover, the values for the TGI in the test with OVCAR-5 ovarian, in the test on RXF 393 renal and with SN12C renal were above 100 µM, above 100 µM and 85.6 µM, respectively.

`COc1cc2oc(=O)ccc2cc1CC=C(C)C`: the TGI with A549 NSCLC, in the test on DU-145 prostate, in the test with HCC-2998 colon, with HOP-62 NSCLC, in the test with HS 578T breast and in the test on MALME-3M melanoma was above 100 µM in each case. The TGI in the test on MCF7 breast was above 100 µM; in the test on MDA-MB-435, above 100 µM; with NCI-H522 lung, above 100 µM; in the test on OVCAR-5 ovarian it was above 100 µM; in the test with RXF 393 renal, 64.7 µM; in the test on SF-268 CNS, above 100 µM. For the same molecule, the TGI with SK-MEL-2 melanoma was above 100 µM; in the test on SK-MEL-5 melanoma, 73.7 µM; in the test on SN12C renal it was above 100 µM; in the test on SNB-75 CNS it was above 100 µM; in the test on T-47D breast, above 100 µM.

With `CN1C(=O)C2C=C3CCCCC3=CC2N(C)C1=O` (stereo not given), the TGI with A549 NSCLC, with DU-145 prostate, in the test with HCC-2998 colon, with HOP-62 NSCLC, with HS 578T breast and in the test with M14 melanoma was above 100 µM in each case. For the same molecule, the TGI in the test on MALME-3M melanoma, in the test on MCF7 breast, in the test on MDA-MB-435, in the test on NCI-H522 lung, in the test with OVCAR-5 ovarian and with RXF 393 renal was above 100 µM in each case. In addition, the TGI with SF-268 CNS, in the test on SK-MEL-2 melanoma, in the test with SK-MEL-5 melanoma, in the test on SN12C renal, with SNB-75 CNS and in the test on T-47D breast was above 100 µM throughout.
